Measurements from patent US7915448B2, “Substituted sulfonylaminoarylmethyl cyclopropanecarboxamide as VR1 receptor antagonists” (Pfizer Inc., priority 2005, dated 2011).

Key:
human VR1 receptors = molecular target: T1, human VR1 receptors (Homo sapiens, UniProt Q8NER1); test: Human VR1 antagonist assay (Ca2+ imaging); assay type: cell-based; settings: cells expressing human VR1, fura-2 Ca2+ imaging, FDSS 6000; capsaicin (300 nM) or acid (pH5.8) stimulation, table does not say which
T1 construct: host or cells: cells highly expressing human VR1; cell type not specified
Description: Human VR1 Antagonist Assay
VR1 antagonistic activity can be determined by the Ca^2+ imaging assay using human VR1 highly expressing cells. The cells that highly express human VR1 receptors are obtainable from several different conventional methods. The one standard method is cloning from human Dorsal Root Ganglion (DRG) or kidney according to the methods such as described in the journal article; Nature, 389, pp 816-824, 1997. Alternatively VR1 receptors highly expressing human keratinocytes are also known and published in the journal article (Biochemical and Biophysical Research Communications, 291, pp 124-129, 2002). […] Further more, the method to up regulate human VR1 gene, which is usually a silent gene or don't produce detectable level of VR1 receptors, is also available to obtain propriety cells. Such genetic modification method was described in detail; Nat. Biotechnol., 19, pp 440-445, 2001.
The cells that express human VR1 receptors were maintained in culture flask at 37° C. in an environment containing 5% CO2 until use in the assay. The intracellular Ca^2+ imaging assay to determine VR1 antagonistic activities were done by following procedures.
The culture medium was removed from the flask and fura-2/AM fluorescent calcium indicator was added to the flask at a concentration of 5 μM in the medium. The flask was placed in CO2 incubator and incubated for 1 hour. Then the cells expressing the human VR1 receptors were detached from the flask follow by washing with phosphate buffer saline, PBS(−) and re-suspended in assay buffer. The 80 μl of aliquot of cell suspension (3.75×10^5 cells/ml) was added to the assay plate and the cells were spun down by centrifuge (950 rpm, 20° C., 3 minutes).
Capsaicin Stimulation Assay:
The capsaicin-induced changes in the intracellular calcium concentration were monitored using FDSS 6000 (Hamamatsu Photonics, Japan), a fluorometric imaging system. The cell suspension in Krebs-Ringer HEPES (KRH) buffer (115 mM NaCl, 5.4 mM KCl, 1 mM MgSO4, 1.8 mM CaCl2, 11 mM D-Glucose, 25 mM HEPES, 0.96 mM Na2HPO4, pH 7.3) were pre-incubated with varying concentrations of the test compounds or KRH buffer (buffer control) for 15 minutes at room temperature under the dark condition. Then capsaicin solution, which gives 300 nM in assay mixture, was automatically added to the assay plate by the FDSS 6000.
The Acid-induced changes in the intracellular calcium concentration were monitored using FDSS 6000 (Hamamatsu Photonics, Japan), a fluorometric imaging system. The cell suspension in resting buffer (HBSS supplemented with 10 mM HEPES, pH 7.4) were pre-incubated with varying concentrations of the test compounds or resting buffer (buffer control) for 15 minutes at room temperature under the dark condition. The cells were automatically added the stimulating solution (HBSS supplemented with MES, final assay buffer pH5.8) by the FDSS 6000.
Determination of Antagonist Activity
The monitoring of the changes in the fluorescence signals (λex=340 nm/380 nm, λem=510-520 nm) was initiated at 1 minute prior to the addition of capsaicin solution or acidic buffer and continued for 5 minute.

[1] = Half-life in Human Liver Microsomes (HLM); settings: human, human liver microsomes (HL101), pH 7.4

T1 sequence (Q8NER1 whole entry): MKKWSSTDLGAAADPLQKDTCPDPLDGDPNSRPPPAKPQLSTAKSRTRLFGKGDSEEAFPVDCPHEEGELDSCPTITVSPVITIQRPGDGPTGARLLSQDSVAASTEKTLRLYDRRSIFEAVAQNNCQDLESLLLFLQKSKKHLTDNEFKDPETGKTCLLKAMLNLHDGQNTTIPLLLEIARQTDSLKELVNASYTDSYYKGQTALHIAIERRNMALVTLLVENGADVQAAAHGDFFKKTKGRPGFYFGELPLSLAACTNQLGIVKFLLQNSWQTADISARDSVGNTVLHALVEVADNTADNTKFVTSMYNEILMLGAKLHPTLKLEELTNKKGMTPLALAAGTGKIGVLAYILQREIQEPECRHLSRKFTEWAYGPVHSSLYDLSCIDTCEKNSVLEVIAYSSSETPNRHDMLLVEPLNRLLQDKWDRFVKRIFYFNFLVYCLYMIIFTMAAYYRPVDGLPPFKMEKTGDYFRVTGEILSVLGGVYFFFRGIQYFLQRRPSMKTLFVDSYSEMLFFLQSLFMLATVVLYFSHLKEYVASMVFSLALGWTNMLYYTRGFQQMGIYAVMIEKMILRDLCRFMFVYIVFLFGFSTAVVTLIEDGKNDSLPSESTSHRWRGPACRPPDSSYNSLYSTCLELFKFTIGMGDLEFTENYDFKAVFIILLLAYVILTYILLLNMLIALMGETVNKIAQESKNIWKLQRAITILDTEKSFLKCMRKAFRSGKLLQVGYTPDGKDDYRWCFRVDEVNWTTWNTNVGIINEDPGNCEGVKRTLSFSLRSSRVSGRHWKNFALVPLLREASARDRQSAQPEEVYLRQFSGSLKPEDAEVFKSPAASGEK

Row | Compound | IC50 (human VR1 receptors) | half-life at 1 μM [1]
1 | CC(C)(C)c1ccc(C2CC2C(=O)NCc2ccc(NS(C)(=O)=O)c(F)c2)cc1 (stereo not drawn) [Example 1, 2-(4-tert-Butylphenyl)-N-{3-fluoro-4-[(methylsulfonyl)amino]benzyl}cyclopropanecarboxamide] | 330 nM | 13 min
2 | Cc1cc([C@@H](C)NC(=O)C2CC2c2ccc(C(C)(C)C)c(F)c2)ccc1NS(C)(=O)=O (stereo partly drawn) [Example 2, 2-(4-tert-Butyl-3-fluorophenyl)-N-((1R)-1-{3-methyl-4-[(methylsulfonyl)amino]phenyl}ethyl)cyclopropanecarboxamide] | 11.2 nM | 32 min
3 | Cc1cc(CNC(=O)C2CC2c2ccc(C(C)(C)C)c(F)c2)ccc1NS(C)(=O)=O (stereo not drawn) [Example 4, 2-(4-tert-Butyl-3-fluorophenyl)-N-{3-methyl-4-[(methylsulfonyl)amino]benzyl}cyclopropanecarboxamide] | 190 nM | 9 min
4 | Cc1cc(CNC(=O)C2CC2(C)c2ccc(C(C)(C)C)cc2)ccc1NS(C)(=O)=O (stereo not drawn) [Example 5, 2-(4-tert-Butylphenyl)-2-methyl-N-{3-methyl-4-[(methylsulfonyl)amino]benzyl}cyclopropanecarboxamide] | 40 nM | 5 min
5 | Cc1cc(CNC(=O)C2CC2c2ccc(C(C)(C)C(F)(F)F)cc2)ccc1NS(C)(=O)=O (stereo not drawn) [Example 6, N-{3-Methyl-4-[(methylsulfonyl)amino]benzyl}-2-[4-(2,2,2-trifluoro-1,1-dimethylethyl)phenyl]cyclopropanecarboxamide] | 18.3 nM | 18 min
6 | C[C@@H](NC(=O)C1CC1c1ccc(C(C)(C)C)cc1)c1ccc(NS(C)(=O)=O)c(F)c1 (stereo partly drawn) [Example 8, 2-(4-tert-Butylphenyl)-N-((1R)-1-{3-fluoro-4-[(methylsulfonyl)amino]phenyl}ethyl)cyclopropanecarboxamide] | 38 nM | 37 min
7 | Cc1cc([C@@H](C)NC(=O)C2CC2(C)c2ccc(C(C)(C)C)nc2)ccc1NS(C)(=O)=O (stereo partly drawn) [Example 10, 2-(6-tert-Butylpyridin-3-yl)-2-methyl-N-((1R)-1-{3-methyl-4-[(methylsulfonyl)amino]phenyl}ethyl)cyclopropanecarboxamide] | 3.59 nM | 22 min
8 | Cc1cc([C@@H](C)NC(=O)C2CC2(C)c2ccc(C(F)(F)F)nc2)ccc1NS(C)(=O)=O (stereo partly drawn) [Example 12, 2-Methyl-N-((1R)-1-{3-methyl-4-[(methylsulfonyl)amino]phenyl}ethyl)-2-[6-(trifluoromethyl)pyridin-3-yl]cyclopropanecarboxamide] | 27 nM | 83 min
9 | Cc1nc([C@@H](C)NC(=O)[C@H]2C[C@]2(C)c2ccc(C(F)(F)F)cc2)ccc1NS(C)(=O)=O [Example 14, (1S,2S)-2-Methyl-N-((1R)-1-{6-methyl-5-[(methylsulfonyl)amino]pyridin-2-yl}ethyl)-2-[4-(trifluoromethyl)phenyl]cyclopropanecarboxamide] | 203 nM | > 120 min
10 | Cc1cc([C@@H](C)NC(=O)C2CC2(C)c2ccc(OC(F)(F)F)cc2)ccc1NS(C)(=O)=O (stereo partly drawn) [Example 16, 2-Methyl-N-((1R)-1-{3-methyl-4-[(methylsulfonyl)amino]phenyl}ethyl)-2-[4-(trifluoromethoxy)phenyl]cyclopropanecarboxamide] | 6.59 nM | 53 min
11 | Cc1cc([C@@H](C)NC(=O)C2CC2c2ccc(C(F)(F)F)cc2)ccc1NS(C)(=O)=O (stereo partly drawn) [Example 19a, N-((1R)-1-{3-Methyl-4-[(methylsulfonyl)amino]phenyl}ethyl)-2-[4-(trifluoromethyl)phenyl]cyclopropanecarboxamide] | 23 nM | > 120 min
12 | C[C@@H](NC(=O)C1CC1c1ccc(C(F)(F)F)cc1)c1ccc(NS(C)(=O)=O)c(CO)c1 (stereo partly drawn) [Example 20, N-((1R)-1-{3-(Hydroxymethyl)-4-[(methylsulfonyl)amino]phenyl}ethyl)-2-[4-(trifluoromethyl)phenyl]cyclopropanecarboxamide] | 47 nM | > 120 min
13 | C[C@@H](NC(=O)[C@H]1C[C@]1(C)c1ccc(C(F)(F)F)cc1)c1ccc(NS(C)(=O)=O)cc1 [Example 21, (1S,2S)-2-Methyl-N-((1R)-1-{4-[(methylsulfonyl)amino]phenyl}ethyl)-2-[4-(trifluoromethyl)phenyl]cyclopropanecarboxamide] | 20.1 nM | > 120 min
14 | C[C@@H](NC(=O)C1CC1(C)c1ccc(SC(F)(F)F)cc1)c1ccc(NS(C)(=O)=O)c(CO)c1 (stereo partly drawn) [Example 25] | 26.6 nM | 30 min
15 | Cc1cc([C@@H](C)NC(=O)C2CC2(C)c2ccc(S(=O)(=O)C(F)(F)F)cc2)ccc1NS(C)(=O)=O (stereo partly drawn) [Example 26, 2-Methyl-N-((1R)-1-{3-methyl-4-[(methylsulfonyl)amino]phenyl}ethyl)-2-{4-[(trifluoromethyl)sulfonyl]phenyl}cyclopropanecarboxamide] | 78.3 nM | 38 min

Next, values leading:

Row | IC50 (human VR1 receptors) | half-life at 1 μM [1] | Compound
16 | 50.5 nM | 50 min | C[C@@H](NC(=O)C1CC1(C)c1ccc(C(C)(C)C(F)(F)F)cc1)c1ccc(NS(C)(=O)=O)c(F)c1 (single isomer, unassigned) [Example 77]
17 | 62 nM | 26 min | Cc1cc([C@H](C)NC(=O)[C@H]2C[C@]2(C)c2ccc(C(F)(F)F)cc2)ccc1NS(C)(=O)=O (single isomer, unassigned) [Example 82]
18 | 171 nM | 42 min | Cc1nc([C@@H](C)NC(=O)C2CC2(C)c2ccc(C(C)(C)C(F)(F)F)cc2)ccc1NS(C)(=O)=O (stereo partly drawn) [Example 9, 2-Methyl-N-((1R)-1-{6-methyl-5-[(methylsulfonyl)amino]pyridin-2-yl}ethyl)-2-[4-(2,2,2-trifluoro-1,1-dimethylethyl)phenyl]cyclopropanecarboxamide]
19 | 0.71 nM | 38 min | Cc1cc([C@@H](C)NC(=O)[C@H]2C[C@]2(C)c2ccc(C(F)(F)F)cc2)ccc1NS(C)(=O)=O [Example 15, (1S,2S)-2-Methyl-N-((1R)-1-{3-methyl-4-[(methylsulfonyl)amino]phenyl}ethyl)-2-[4-(trifluoromethyl)phenyl]cyclopropanecarboxamide]
20 | 282 nM | 119 min | C[C@@H](NC(=O)C1CC1c1ccc(C(C)(C)C(F)(F)F)cc1)c1ccc(NS(C)(=O)=O)c(F)c1 (stereo partly drawn) [Example 18, N-((1R)-1-{3-Fluoro-4-[(methylsulfonyl)amino]phenyl}ethyl)-2-[4-(2,2,2-trifluoro-1,1-dimethylethyl)phenyl]cyclopropanecarboxamide]
21 | 1.2 nM | 37 min | C[C@@H](NC(=O)[C@H]1C[C@]1(C)c1ccc(C(F)(F)F)cc1)c1ccc(NS(C)(=O)=O)c(CO)c1 [Example 22, (1S,2S)-N-((1R)-1-{3-(Hydroxymethyl)-4-[(methylsulfonyl)amino]phenyl}ethyl)-2-methyl-2-[4 (trifluoromethyl)phenyl]cyclopropanecarboxamide]
22 | 10.9 nM | > 120 min | C[C@@H](NC(=O)[C@H]1C[C@]1(C)c1ccc(C(F)(F)F)cc1)c1ccc(NS(C)(=O)=O)c(F)c1 [Example 23, (1S,2S)-N-((1R)-1-{3-Fluoro-4-[(methylsulfonyl)amino]phenyl}ethyl)-2-methyl-2-[4-(trifluoromethyl)phenyl]cyclopropanecarboxamide]
23 | 19.3 nM | 23 min | Cc1cc([C@@H](C)NC(=O)C2CC2(C)c2ccc(SC(F)(F)F)cc2)ccc1NS(C)(=O)=O (stereo partly drawn) [Example 24, 2-Methyl-N-((1R)-1-{3-methyl-4-[(methylsulfonyl)amino]phenyl}ethyl)-2-{4-[(trifluoromethyl)thio]phenyl}cyclopropanecarboxamide]
24 | 7.83 nM | 25 min | Cc1cc([C@@H](C)NC(=O)C2CC2(C)c2ccc(C(C)(C)C(F)(F)F)cc2)ccc1NS(C)(=O)=O (stereo partly drawn) [Example 27]
